Source: the supplement of paper PMC10307832

Tests used:
Test in all cases: relative viability (nuclei count vs DMSO), 5 days (fraction); higher = more cells survive
Apatinib + Dasatinib = compound: N#CC1(c2ccc(NC(=O)c3cccnc3NCc3ccncc3)cc2)CCCC1 [Apatinib] + Cc1nc(Nc2ncc(C(=O)Nc3c(C)cccc3Cl)s2)cc(N2CCN(CCO)CC2)n1 [Dasatinib] (partner 0.075 µM)
How it was run: (§1)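 A single step with final 0.05% Triton X-100, 1% formaldehyde and 1 ug/ml Hoechst fixed the cells and stained nuclei 5 days after treatment. Lung cancer cell lines in 1536-well plates had been treated by pin tool the day after seeding with one drug alone or a fixed anchor-drug dose plus five library-drug doses (not always all listed) in √10 steps, and nuclei were counted on 4× images. Relative viability is the ratio of nuclei in treated wells to nuclei in vehicle wells, taken as the median of duplicate plates.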

Metformin + Olaparib = compound: CN(C)C(=N)NC(=N)N [Metformin] + O=C(c1cc(Cc2n[nH]c(=O)c3ccccc23)ccc1F)N1CCN(C(=O)C2CC2)CC1 [Olaparib] (partner 8 µM)
How it was run: as §1

Metformin + Bortezomib = compound: CN(C)C(=N)NC(=N)N [Metformin] + CC(C)C[C@H](NC(=O)[C@H](Cc1ccccc1)NC(=O)c1cnccn1)B(O)O [Bortezomib] (partner 0.002 µM)
How it was run: as §1

Metformin + Pictilisib = compound: CN(C)C(=N)NC(=N)N [Metformin] + CS(=O)(=O)N1CCN(Cc2cc3nc(-c4cccc5[nH]ncc45)nc(N4CCOCC4)c3s2)CC1 [Pictilisib] (partner 1 µM)
How it was run: as §1

Cell Line | relative viability (Apatinib + Dasatinib; first compound 0.08 µM) | relative viability (Apatinib + Dasatinib; first compound 0.253 µM) | relative viability (Apatinib + Dasatinib; first compound 0.8 µM) | relative viability (Apatinib + Dasatinib; first compound 2.53 µM) | relative viability (Apatinib + Dasatinib; first compound 8 µM) | relative viability (Metformin + Olaparib; first compound 31.62 µM) | relative viability (Metformin + Olaparib; first compound 100 µM) | relative viability (Metformin + Olaparib; first compound 316.23 µM) | relative viability (Metformin + Olaparib; first compound 1000 µM) | relative viability (Metformin + Bortezomib; first compound 10 µM) | relative viability (Metformin + Bortezomib; first compound 31.62 µM) | relative viability (Metformin + Bortezomib; first compound 100 µM) | relative viability (Metformin + Bortezomib; first compound 316.23 µM) | relative viability (Metformin + Bortezomib; first compound 1000 µM) | relative viability (Metformin + Pictilisib; first compound 10 µM) | relative viability (Metformin + Pictilisib; first compound 31.62 µM) | relative viability (Metformin + Pictilisib; first compound 100 µM) | relative viability (Metformin + Pictilisib; first compound 316.23 µM) | relative viability (Metformin + Pictilisib; first compound 1000 µM) | relative viability (Metformin + Olaparib; first compound 10 µM)
HCC-78 | 0.332 | 0.289 | 0.361 | 0.333 | 0.302 | 1.01 | 1.07 | 0.979 | 0.443 | 0.842 | 0.797 | 0.929 | 0.831 | 0.853 | 0.291 | 0.257 | 0.201 | 0.159 | 0.244 | –
HCC-366 | 0.661 | 0.559 | 0.565 | 0.647 | 0.601 | 0.21 | 0.213 | 0.203 | 0.213 | 1.09 | 1.11 | 1.01 | 1.02 | 1.12 | 0.141 | 0.213 | 0.138 | 0.115 | 0.185 | 0.255
HCC-827 | 0.287 | 0.326 | 0.273 | 0.236 | 0.231 | 0.366 | 0.484 | 0.415 | 0.424 | – | 0.952 | 1.12 | 0.919 | 0.925 | – | 0.914 | 1.13 | 0.996 | 1.15 | 0.487
HOP-62 | 0.732 | 0.699 | 0.689 | 0.571 | 0.589 | 0.2 | 0.189 | 0.251 | 0.221 | 0.602 | 0.745 | 0.209 | 0.723 | 0.816 | 0.739 | 0.656 | 0.786 | 0.531 | 0.657 | 0.189
IA-LM | – | – | – | – | – | 0.94 | 0.85 | 0.658 | 0.917 | – | 1.14 | 1.03 | 0.893 | 0.624 | 0.337 | 0.462 | 0.41 | 0.38 | 0.303 | 0.864
LC-2-ad | 0.718 | 0.774 | 0.511 | 0.391 | 0.4 | 0.537 | 0.562 | 0.505 | 0.587 | – | 1.01 | 0.766 | 0.756 | 0.926 | – | 0.471 | 0.334 | 0.426 | 0.408 | –
LCLC-97TM1 | 0.824 | 0.763 | 0.767 | 0.711 | 0.504 | 0.321 | 0.394 | 0.249 | 0.414 | 0.635 | 0.87 | 0.789 | 0.713 | 0.351 | 0.257 | 0.196 | 0.255 | 0.234 | 0.223 | –
LCLC-103H | 0.436 | 0.402 | 0.458 | 0.43 | 0.344 | 0.713 | 0.76 | 0.737 | 0.777 | 0.971 | 1.22 | 1.06 | 1.12 | 1.06 | 0.713 | 0.717 | 0.711 | 0.669 | 0.607 | 0.727
LK-2 | 0.39 | 0.258 | 0.227 | 0.24 | 0.257 | 0.509 | 0.644 | 0.734 | 0.873 | – | – | – | – | – | 0.707 | 0.757 | 0.811 | 0.61 | 0.769 | 0.79
NCI-H358 | 0.188 | 0.151 | 0.139 | 0.206 | 0.186 | 0.537 | 0.569 | 0.412 | 0.424 | – | – | – | – | – | 0.356 | 0.424 | 0.44 | 0.332 | 0.378 | 0.394
NCI-H522 | 0.872 | 0.882 | 0.884 | 0.892 | 0.782 | 0.752 | 0.745 | 0.652 | 0.698 | – | – | – | – | – | – | – | – | – | – | 0.721
NCI-H1299 | – | – | – | – | – | 0.924 | 0.941 | 0.873 | 0.933 | 1.09 | 1.06 | 1.08 | 1.06 | 1.06 | 0.834 | 0.98 | 0.9 | 0.645 | 0.479 | 0.867
NCI-H1395 | 0.412 | 0.399 | 0.367 | 0.349 | 0.378 | 0.428 | 0.455 | 0.42 | 0.417 | – | – | – | – | – | 0.64 | 0.728 | 0.653 | 0.81 | 0.593 | 0.386
NCI-H1563 | 0.444 | 0.41 | 0.406 | 0.475 | 0.451 | – | – | – | – | 0.917 | 0.866 | 1.02 | 0.877 | 0.954 | 0.605 | 0.651 | 0.62 | 0.624 | 0.646 | –
NCI-H1648 | – | – | – | – | – | 1.14 | 0.502 | 1.07 | 1.04 | – | – | – | – | – | – | – | – | – | – | –
NCI-H1703 | – | – | – | – | – | 0.71 | 0.875 | 0.506 | 0.521 | 0.389 | 0.394 | 0.453 | 0.42 | 0.505 | 0.291 | 0.309 | 0.29 | 0.291 | 0.226 | 0.501
NCI-H1793 | 0.427 | 0.345 | 0.337 | 0.37 | 0.3 | 1.1 | 0.813 | 0.781 | 0.901 | – | – | – | – | – | 0.29 | 0.399 | 0.304 | 0.268 | 0.38 | 0.702
NCI-H1944 | 0.247 | 0.204 | 0.208 | 0.254 | 0.249 | 0.381 | 0.479 | 0.397 | 0.471 | – | – | – | – | – | 0.324 | 0.351 | 0.371 | 0.293 | 0.338 | 0.385
NCI-H2170 | 0.551 | 0.447 | 0.489 | 0.464 | 0.572 | 0.468 | 0.536 | 0.487 | 0.491 | – | – | – | – | – | 0.3 | 0.283 | 0.301 | 0.31 | 0.264 | 0.45
NCI-H2342 | 0.267 | 0.295 | 0.307 | 0.28 | 0.283 | 0.375 | 0.372 | 0.418 | 0.358 | – | – | – | – | – | – | – | – | – | – | –
SK-MES-1 | 0.368 | 0.323 | 0.38 | 0.348 | 0.307 | 0.352 | 0.406 | 0.381 | 0.363 | – | – | – | – | – | 0.424 | 0.34 | 0.362 | 0.378 | 0.414 | 0.305
SW 900 | 0.699 | 0.429 | 0.545 | 0.476 | 0.491 | 0.945 | – | 0.892 | 0.917 | – | – | – | – | – | – | – | – | – | – | 0.853
